In patent US11357779B2 (G1 Therapeutics, Inc., priority 2018, dated 2022):
Where two headings read alike, the source gives them in different places.

Assay: Plasma concentration versus time of Compound I and metabolite Compound III in patients dosed QD or BID with Form B of Compound II plus fulvestrant
Assay type: in vivo, human
Settings: human, plasma, oral; for concentration at 8 day / concentration at 15 day: Cohort 7, 150 mg BID of Form B; for concentration at 8 day: Day 8; for concentration at 15 day: Day 15
Description: Patients were enrolled into 1 of 2 parallel, independently operating, dose-escalation dosing cohorts with Form B of Compound II administered continuously either once daily (QD) or twice daily (BID) with food with fixed-dose fulvestrant (intramuscularly every 14 days for the first three injections and then every 28 days). Pre- or perimenopausal patients also received goserelin for the duration of study treatment. A […] agonist was started at least 28 days before the first dose of Form B, and those patients who were taking another LHRH agonist were switched to goserelin on Day 1. Patients were split into […] cohorts providing once a day (QD) dosing of 200 mg, 300 mg, 400 mg, 500 mg, or 650 mg of Form B, or twice a day (BID) dosing of 100 mg, 150 mg, or 200 mg of Form B. The second dose in BID cohorts was not administered in the evening until at least 12 hours after the initial morning dose of Form B. The dosing cohorts for Form B of Compound II are provided in Table 1.
Blood samples were collected at the following time points relative to the morning dose of Form B at Day 1 and at Day 29: pre-dose (0 hour) and 1, 2, 3, 4, 6, 8, 10, 12 (prior to the evening dose in the BID cohorts), and 24 (prior to the next day's morning dose) hours after dosing. A 5-minute time window was allowed for samples collected between the predose and 3 hours after Form B dosing. A 15-minute window was allowed for samples collected between 4 to 12 hours after Form B dosing. A 1-hour window was allowed for the sample collected 24 hours after Form B dosing. Blood samples for Compound I PK trough levels were collected pre-dose at Day 8, Day 15, and Day 22 prior to the morning administration of Compound I. Plasma concentrations of Compound I and its metabolite, Compound III, were measured using validated methods.
Analysis of plasma concentration versus time data for calculation of standard pharmacokinetic (PK) parameters following oral administration was conducted using Phoenix WinNonlin version 6.3 using actual blood sampling times.

[1] = 150 mg, read-out: Trough Compound I Concentration, Max
[2] = 150 mg, read-out: Trough Compound I Concentration, Median

## CC(C)N1CCN(c2ccc(Nc3ncc4cc5n(c4n3)C3(CCCCC3)CNC5=O)nc2)CC1 [Compound I, 2′-((5-(4-isopropylpiperazin-1-yl)pyridin-2-yl)amino)-7′,8′-dihydro-6′H-spiro[cyclohexane-1,9′-pyrazino[1′,2′:1,5]pyrrolo[2,3-d]pyrimidin]-6′-one]
100 mg, Cohort 6, 100 mg BID of Form B, Day 29, 0.0 h, read-out: Compound I Concentration, Median
  concentration at 0 h: 4.13 ng/mL
100 mg, Cohort 6, 100 mg BID of Form B, Day 29, 0.0 h, read-out: Compound I Concentration, Min
  concentration at 0 h: 1.54 ng/mL
100 mg, Cohort 6, 100 mg BID of Form B, Day 29, 1.0 h, read-out: Compound I Concentration, Max
  concentration at 1 h: 15.7 ng/mL
100 mg, Cohort 6, 100 mg BID of Form B, Day 29, 1.0 h, read-out: Compound I Concentration, Mean
  concentration at 1 h: 9.25 ng/mL
100 mg, Cohort 6, 100 mg BID of Form B, Day 29, 1.0 h, read-out: Compound I Concentration, Median
  concentration at 1 h: 9.34 ng/mL
100 mg, Cohort 6, 100 mg BID of Form B, Day 29, 1.0 h, read-out: Compound I Concentration, Min
  concentration at 1 h: 1.79 ng/mL
100 mg, Cohort 6, 100 mg BID of Form B, Day 29, 2.0 h, read-out: Compound I Concentration, Max
  concentration at 2 h: 19.6 ng/mL
100 mg, Cohort 6, 100 mg BID of Form B, Day 29, 2.0 h, read-out: Compound I Concentration, Mean
  concentration at 2 h: 11 ng/mL
100 mg, Cohort 6, 100 mg BID of Form B, Day 29, 2.0 h, read-out: Compound I Concentration, Median
  concentration at 2 h: 11.8 ng/mL
100 mg, Cohort 6, 100 mg BID of Form B, Day 29, 2.0 h, read-out: Compound I Concentration, Min
  concentration at 2 h: 2.94 ng/mL
100 mg, Cohort 6, 100 mg BID of Form B, Day 29, 3.0 h, read-out: Compound I Concentration, Max
  concentration at 3 h: 20.5 ng/mL
100 mg, Cohort 6, 100 mg BID of Form B, Day 29, 3.0 h, read-out: Compound I Concentration, Mean
  concentration at 3 h: 10.5 ng/mL
100 mg, Cohort 6, 100 mg BID of Form B, Day 29, 3.0 h, read-out: Compound I Concentration, Median
  concentration at 3 h: 8.31 ng/mL
100 mg, Cohort 6, 100 mg BID of Form B, Day 29, 3.0 h, read-out: Compound I Concentration, Min
  concentration at 3 h: 4.4 ng/mL
100 mg, Cohort 6, 100 mg BID of Form B, Day 29, 4.0 h, read-out: Compound I Concentration, Max
  concentration at 4 h: 19.8 ng/mL
100 mg, Cohort 6, 100 mg BID of Form B, Day 29, 4.0 h, read-out: Compound I Concentration, Mean
  concentration at 4 h: 10.5 ng/mL
100 mg, Cohort 6, 100 mg BID of Form B, Day 29, 4.0 h, read-out: Compound I Concentration, Median
  concentration at 4 h: 9.26 ng/mL
100 mg, Cohort 6, 100 mg BID of Form B, Day 29, 4.0 h, read-out: Compound I Concentration, Min
  concentration at 4 h: 5.14 ng/mL
100 mg, Cohort 6, 100 mg BID of Form B, Day 29, 6.0 h, read-out: Compound I Concentration, Max
  concentration at 6 h: 16.2 ng/mL
100 mg, Cohort 6, 100 mg BID of Form B, Day 29, 6.0 h, read-out: Compound I Concentration, Mean
  concentration at 6 h: 8.82 ng/mL
100 mg, Cohort 6, 100 mg BID of Form B, Day 29, 6.0 h, read-out: Compound I Concentration, Median
  concentration at 6 h: 8.11 ng/mL
100 mg, Cohort 6, 100 mg BID of Form B, Day 29, 6.0 h, read-out: Compound I Concentration, Min
  concentration at 6 h: 4.1 ng/mL
100 mg, Cohort 6, 100 mg BID of Form B, Day 29, 8.0 h, read-out: Compound I Concentration, Max
  concentration at 8 h: 13.8 ng/mL
100 mg, Cohort 6, 100 mg BID of Form B, Day 29, 8.0 h, read-out: Compound I Concentration, Mean
  concentration at 8 h: 7.45 ng/mL
100 mg, Cohort 6, 100 mg BID of Form B, Day 29, 8.0 h, read-out: Compound I Concentration, Median
  concentration at 8 h: 6.57 ng/mL
100 mg, Cohort 6, 100 mg BID of Form B, Day 29, 8.0 h, read-out: Compound I Concentration, Min
  concentration at 8 h: 3.61 ng/mL
100 mg, Cohort 6, 100 mg BID of Form B, Day 29, 10.0 h, read-out: Compound I Concentration, Max
  concentration at 10 h: 11.4 ng/mL
100 mg, Cohort 6, 100 mg BID of Form B, Day 29, 10.0 h, read-out: Compound I Concentration, Mean
  concentration at 10 h: 6.23 ng/mL
100 mg, Cohort 6, 100 mg BID of Form B, Day 29, 10.0 h, read-out: Compound I Concentration, Median
  concentration at 10 h: 5.44 ng/mL
100 mg, Cohort 6, 100 mg BID of Form B, Day 29, 10.0 h, read-out: Compound I Concentration, Min
  concentration at 10 h: 2.88 ng/mL
100 mg, Cohort 6, 100 mg BID of Form B, Day 29, 12.0 h, read-out: Compound I Concentration, Max
  concentration at 12 h: 10.1 ng/mL
100 mg, Cohort 6, 100 mg BID of Form B, Day 29, 12.0 h, read-out: Compound I Concentration, Mean
  concentration at 12 h: 7.16 ng/mL
100 mg, Cohort 6, 100 mg BID of Form B, Day 29, 12.0 h, read-out: Compound I Concentration, Median
  concentration at 12 h: 8.36 ng/mL
100 mg, Cohort 6, 100 mg BID of Form B, Day 29, 12.0 h, read-out: Compound I Concentration, Min
  concentration at 12 h: 2.37 ng/mL
150 mg, 150 mg BID of Form B, Day 1, 0.0 h, Mean, read-out: Compound I Concentration
  concentration at 0 h: 0 ng/mL
150 mg, 150 mg BID of Form B, Day 1, 0.0 h, Median, read-out: Compound I Concentration
  concentration at 0 h: 0 ng/mL
150 mg, 150 mg BID of Form B, Day 1, 1.0 h, Mean, read-out: Compound I Concentration
  concentration at 1 h: 4.63 ng/mL
150 mg, 150 mg BID of Form B, Day 1, 1.0 h, Median, read-out: Compound I Concentration
  concentration at 1 h: 5.06 ng/mL
150 mg, 150 mg BID of Form B, Day 1, 2.0 h, Mean, read-out: Compound I Concentration
  concentration at 2 h: 11 ng/mL
150 mg, 150 mg BID of Form B, Day 1, 2.0 h, Median, read-out: Compound I Concentration
  concentration at 2 h: 11.6 ng/mL
150 mg, 150 mg BID of Form B, Day 1, 3.0 h, Mean, read-out: Compound I Concentration
  concentration at 3 h: 14.4 ng/mL
150 mg, 150 mg BID of Form B, Day 1, 3.0 h, Median, read-out: Compound I Concentration
  concentration at 3 h: 10.2 ng/mL
150 mg, 150 mg BID of Form B, Day 1, 4.0 h, Mean, read-out: Compound I Concentration
  concentration at 4 h: 20.7 ng/mL
150 mg, 150 mg BID of Form B, Day 1, 4.0 h, Median, read-out: Compound I Concentration
  concentration at 4 h: 21.5 ng/mL
150 mg, 150 mg BID of Form B, Day 1, 6.0 h, Mean, read-out: Compound I Concentration
  concentration at 6 h: 12.2 ng/mL
150 mg, 150 mg BID of Form B, Day 1, 6.0 h, Median, read-out: Compound I Concentration
  concentration at 6 h: 10.4 ng/mL
150 mg, 150 mg BID of Form B, Day 1, 8.0 h, Mean, read-out: Compound I Concentration
  concentration at 8 h: 10.1 ng/mL
150 mg, 150 mg BID of Form B, Day 1, 8.0 h, Median, read-out: Compound I Concentration
  concentration at 8 h: 9.95 ng/mL
150 mg, 150 mg BID of Form B, Day 1, 10.0 h, Mean, read-out: Compound I Concentration
  concentration at 10 h: 8.98 ng/mL
150 mg, 150 mg BID of Form B, Day 1, 10.0 h, Median, read-out: Compound I Concentration
  concentration at 10 h: 8.98 ng/mL
150 mg, 150 mg BID of Form B, Day 1, 12.0 h, Mean, read-out: Compound I Concentration
  concentration at 12 h: 7.73 ng/mL
150 mg, 150 mg BID of Form B, Day 1, 12.0 h, Median, read-out: Compound I Concentration
  concentration at 12 h: 7.38 ng/mL
[1]
  concentration at 8 day: 42.3 ng/mL
  concentration at 15 day: 35.7 ng/mL
150 mg, read-out: Trough Compound I Concentration, Mean
  concentration at 8 day: 26.8 ng/mL
[2]
  concentration at 8 day: 20.6 ng/mL
  concentration at 15 day: 23.3 ng/mL
150 mg, read-out: Trough Compound I Concentration, Min
  concentration at 8 day: 17.4 ng/mL
